In article PMC6478789, “A chemical toolbox for the study of bromodomains and epigenetic signaling” (Nature Communications, 2019):
Where two headings read alike, the source gives them in different places. Values belong to the molecule of their own block, whether it stands above or below them.

How the values were obtained:
BRD1 = biological target: T1, BRD1 (Homo sapiens, UniProt O95696); test: BROMOscan ligand-binding assay
T1 sequence (O95696 562-666 limits assumed): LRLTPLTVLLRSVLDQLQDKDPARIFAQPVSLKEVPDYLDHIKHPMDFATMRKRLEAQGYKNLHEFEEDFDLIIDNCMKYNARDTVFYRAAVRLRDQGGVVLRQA
Excerpt: (§1) BROMOscan is a binding assay based on the well-known KINOMEscan technology. This assay measures the binding of a DNA-tagged bromodomain to an immobilized BRD ligand. If an inhibitor is present, it will compete with the bromodomain binding to the immobilized ligand, resulting in reduction of a quantitative PCR (qPCR) signal in a dose-dependent manner.

CECR2 = CECR2 (Homo sapiens, UniProt Q9BXF3); test: BROMOscan ligand-binding assay
Sequence of CECR2 (Q9BXF3 434-538 limits assumed): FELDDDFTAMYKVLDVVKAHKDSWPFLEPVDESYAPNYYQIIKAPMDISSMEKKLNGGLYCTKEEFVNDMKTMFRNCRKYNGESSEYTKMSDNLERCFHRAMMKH
Excerpt: as §1

BRD3(2) = BRD3(2) (Homo sapiens, UniProt Q15059); test: BROMOscan ligand-binding assay
Sequence of BRD3(2) (Q15059 306-415 limits assumed): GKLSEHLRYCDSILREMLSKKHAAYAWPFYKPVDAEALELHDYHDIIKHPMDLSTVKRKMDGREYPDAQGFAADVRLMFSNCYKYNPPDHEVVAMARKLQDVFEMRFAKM
Excerpt: as §1

BRD4(fl) = BRD4(fl) (Homo sapiens, UniProt O60885); test: BROMOscan ligand-binding assay
Excerpt: as §1

BRPF1 = biological target: T2, BRPF1 (Homo sapiens, UniProt P55201); test: BROMOscan ligand-binding assay
T2 sequence (P55201 628-732 limits assumed): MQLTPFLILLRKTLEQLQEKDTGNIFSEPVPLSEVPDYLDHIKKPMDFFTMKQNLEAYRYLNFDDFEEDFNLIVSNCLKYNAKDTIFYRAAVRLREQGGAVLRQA
Excerpt: as §1

BRDT(1,2) = BRDT(1,2) (Homo sapiens, UniProt Q58F21); test: BROMOscan ligand-binding assay
Excerpt: as §1

EP300 [1] = biological target: T3, EP300 (Homo sapiens, UniProt Q09472); test: BROMOscan ligand-binding assay
T3 sequence (Q09472 1049-1156 limits assumed): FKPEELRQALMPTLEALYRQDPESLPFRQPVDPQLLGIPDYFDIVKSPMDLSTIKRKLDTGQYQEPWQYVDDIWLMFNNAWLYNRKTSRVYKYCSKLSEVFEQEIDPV
Excerpt: as §1

BRDT(1) = BRDT(1) (Homo sapiens, UniProt Q58F21); test: BROMOscan ligand-binding assay
Excerpt: as §1

WDR9(2) = WDR9(2) (Homo sapiens, UniProt Q9NSI6); test: BROMOscan ligand-binding assay
Sequence of WDR9(2) (Q9NSI6 1313-1418 limits assumed): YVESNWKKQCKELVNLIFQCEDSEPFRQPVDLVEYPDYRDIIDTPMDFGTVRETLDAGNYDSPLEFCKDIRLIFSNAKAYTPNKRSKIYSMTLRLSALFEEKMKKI
Excerpt: as §1

PBRM1(5) = PBRM1(5) (Homo sapiens, UniProt Q86U86); test: BROMOscan ligand-binding assay
Sequence of PBRM1(5) (Q86U86 653-763 limits assumed): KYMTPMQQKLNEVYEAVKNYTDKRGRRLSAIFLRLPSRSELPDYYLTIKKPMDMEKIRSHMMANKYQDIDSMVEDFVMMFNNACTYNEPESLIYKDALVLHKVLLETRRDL
Excerpt: as §1

BRD2(1) = BRD2(1) (Homo sapiens, UniProt P25440); test: BROMOscan ligand-binding assay
Excerpt: as §1

BRD3(1) = BRD3(1) (Homo sapiens, UniProt Q15059); test: BROMOscan ligand-binding assay
Excerpt: as §1

BRD8(2) = BRD8(2) (Homo sapiens, UniProt Q9H0E9); test: BROMOscan ligand-binding assay
Sequence of BRD8(2) (Q9H0E9 1099-1207 limits assumed): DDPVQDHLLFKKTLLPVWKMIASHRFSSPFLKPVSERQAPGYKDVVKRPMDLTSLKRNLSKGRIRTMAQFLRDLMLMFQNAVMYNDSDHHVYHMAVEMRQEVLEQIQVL
Excerpt: as §1

FALZ = FALZ (Homo sapiens, UniProt Q12830); test: BROMOscan ligand-binding assay
Excerpt: as §1

HAT1 = biological target: T4, HAT1 (Homo sapiens, UniProt O14929); test: Histone acetyltransferase (HAT) activity assay; type: biochemical;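 note: HAT selectivity screen of BRD probe compounds, enzyme activity in % measured with compound at 1 µM and 10 µM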
T4 sequence (O14929 1-419): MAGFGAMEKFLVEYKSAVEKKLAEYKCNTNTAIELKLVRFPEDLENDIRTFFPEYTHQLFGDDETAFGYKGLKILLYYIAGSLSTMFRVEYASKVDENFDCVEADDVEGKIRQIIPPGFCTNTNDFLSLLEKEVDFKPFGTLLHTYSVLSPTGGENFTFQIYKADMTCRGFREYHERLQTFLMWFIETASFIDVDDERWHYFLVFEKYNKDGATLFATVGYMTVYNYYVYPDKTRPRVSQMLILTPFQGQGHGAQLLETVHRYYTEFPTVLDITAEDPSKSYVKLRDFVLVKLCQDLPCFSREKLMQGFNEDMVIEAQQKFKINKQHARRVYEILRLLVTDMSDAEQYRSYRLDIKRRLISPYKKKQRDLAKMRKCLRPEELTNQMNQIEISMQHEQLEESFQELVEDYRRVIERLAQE

EP300 [2] = biological target: EP300 (Homo sapiens, UniProt Q09472); test: Histone acetyltransferase (HAT) activity assay; type: biochemical;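 note: selectivity screen of bromodomain probe compounds against histone acetyltransferases, with enzyme activity given in percent for compounds tested at 1 and 10 µM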
Target sequence in this assay (Q09472 whole entry, species assumed): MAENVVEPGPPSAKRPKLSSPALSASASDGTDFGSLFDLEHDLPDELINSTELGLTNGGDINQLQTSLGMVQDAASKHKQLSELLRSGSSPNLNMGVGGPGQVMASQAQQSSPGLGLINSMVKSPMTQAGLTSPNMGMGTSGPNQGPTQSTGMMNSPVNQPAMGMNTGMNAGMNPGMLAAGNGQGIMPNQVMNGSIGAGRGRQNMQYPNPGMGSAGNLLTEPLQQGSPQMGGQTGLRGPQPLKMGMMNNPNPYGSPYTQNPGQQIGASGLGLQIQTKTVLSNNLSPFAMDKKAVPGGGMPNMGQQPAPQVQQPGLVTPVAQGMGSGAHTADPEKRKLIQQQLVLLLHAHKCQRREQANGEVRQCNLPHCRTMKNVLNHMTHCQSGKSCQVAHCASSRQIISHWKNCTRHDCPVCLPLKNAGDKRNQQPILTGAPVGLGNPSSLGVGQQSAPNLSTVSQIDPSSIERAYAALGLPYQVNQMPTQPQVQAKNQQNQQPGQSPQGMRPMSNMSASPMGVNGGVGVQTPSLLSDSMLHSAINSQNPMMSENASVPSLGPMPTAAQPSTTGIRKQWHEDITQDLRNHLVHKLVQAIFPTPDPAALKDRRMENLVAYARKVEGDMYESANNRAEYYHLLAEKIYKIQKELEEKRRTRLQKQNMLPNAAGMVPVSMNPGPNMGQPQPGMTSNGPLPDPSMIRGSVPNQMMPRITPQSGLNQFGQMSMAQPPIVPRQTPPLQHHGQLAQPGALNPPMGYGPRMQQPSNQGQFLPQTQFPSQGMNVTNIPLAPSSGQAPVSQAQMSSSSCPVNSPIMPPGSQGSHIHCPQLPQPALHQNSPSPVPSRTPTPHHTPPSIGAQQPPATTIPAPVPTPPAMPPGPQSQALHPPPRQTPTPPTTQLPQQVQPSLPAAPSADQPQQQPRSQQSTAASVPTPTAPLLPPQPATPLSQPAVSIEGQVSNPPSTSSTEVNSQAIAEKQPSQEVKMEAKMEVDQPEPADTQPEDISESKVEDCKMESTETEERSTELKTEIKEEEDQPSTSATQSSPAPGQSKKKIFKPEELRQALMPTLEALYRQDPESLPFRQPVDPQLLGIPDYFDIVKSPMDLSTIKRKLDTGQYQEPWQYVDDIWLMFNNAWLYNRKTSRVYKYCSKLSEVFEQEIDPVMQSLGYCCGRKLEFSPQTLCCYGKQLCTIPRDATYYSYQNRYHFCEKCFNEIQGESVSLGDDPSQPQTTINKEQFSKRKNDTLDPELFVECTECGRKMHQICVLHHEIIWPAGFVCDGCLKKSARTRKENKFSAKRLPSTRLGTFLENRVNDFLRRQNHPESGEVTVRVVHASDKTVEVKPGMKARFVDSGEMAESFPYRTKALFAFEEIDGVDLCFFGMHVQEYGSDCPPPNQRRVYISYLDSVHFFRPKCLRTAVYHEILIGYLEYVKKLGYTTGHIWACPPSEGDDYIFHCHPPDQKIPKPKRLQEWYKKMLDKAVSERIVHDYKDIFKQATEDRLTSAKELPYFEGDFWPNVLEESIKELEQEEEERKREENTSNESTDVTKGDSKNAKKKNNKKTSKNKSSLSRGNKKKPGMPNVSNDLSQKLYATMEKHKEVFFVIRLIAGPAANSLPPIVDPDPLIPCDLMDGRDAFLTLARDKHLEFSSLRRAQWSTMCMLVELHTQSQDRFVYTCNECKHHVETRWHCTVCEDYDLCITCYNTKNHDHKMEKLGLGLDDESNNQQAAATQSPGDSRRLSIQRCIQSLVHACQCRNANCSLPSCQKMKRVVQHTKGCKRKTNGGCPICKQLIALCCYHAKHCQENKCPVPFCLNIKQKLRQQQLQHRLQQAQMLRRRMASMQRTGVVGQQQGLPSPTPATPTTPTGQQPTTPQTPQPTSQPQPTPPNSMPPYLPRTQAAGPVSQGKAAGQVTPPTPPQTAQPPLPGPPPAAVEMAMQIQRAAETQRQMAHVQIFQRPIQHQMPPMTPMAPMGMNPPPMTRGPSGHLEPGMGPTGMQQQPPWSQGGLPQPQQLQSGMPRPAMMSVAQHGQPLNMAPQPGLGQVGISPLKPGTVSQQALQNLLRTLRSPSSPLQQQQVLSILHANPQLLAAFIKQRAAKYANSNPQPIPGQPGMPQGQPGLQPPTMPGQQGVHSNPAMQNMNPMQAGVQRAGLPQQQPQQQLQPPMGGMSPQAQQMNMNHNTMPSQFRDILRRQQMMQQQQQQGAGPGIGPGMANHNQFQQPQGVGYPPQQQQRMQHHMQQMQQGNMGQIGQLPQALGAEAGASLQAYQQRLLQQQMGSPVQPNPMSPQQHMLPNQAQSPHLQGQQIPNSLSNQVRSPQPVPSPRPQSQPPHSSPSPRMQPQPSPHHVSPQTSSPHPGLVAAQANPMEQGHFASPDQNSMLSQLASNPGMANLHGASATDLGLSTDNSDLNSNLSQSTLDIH

GCN5L2 = GCN5L2 (Homo sapiens, UniProt Q92830); test: Histone acetyltransferase (HAT) activity assay; type: biochemical;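 note: selectivity screen of BRD probe compounds across a panel of histone acetyltransferases, HAT activity in % with compound at 1 or 10 µM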
BAZ2B = biological target: T5, BAZ2B (Homo sapiens, UniProt Q9UIF8); test: BROMOscan ligand-binding assay
T5 sequence (Q9UIF8 2060-2164 limits assumed): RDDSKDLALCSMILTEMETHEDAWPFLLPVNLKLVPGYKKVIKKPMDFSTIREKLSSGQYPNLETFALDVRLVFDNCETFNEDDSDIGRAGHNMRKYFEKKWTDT
Excerpt: as §1

MYST1 = biological target: T6, MYST1 (Homo sapiens, UniProt Q9H7Z6); test: Histone acetyltransferase (HAT) activity assay; type: biochemical;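 note: selectivity screen across a panel of histone acetyltransferases, with compounds tested at 1 and 10 µM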
T6 sequence (Q9H7Z6 1-458): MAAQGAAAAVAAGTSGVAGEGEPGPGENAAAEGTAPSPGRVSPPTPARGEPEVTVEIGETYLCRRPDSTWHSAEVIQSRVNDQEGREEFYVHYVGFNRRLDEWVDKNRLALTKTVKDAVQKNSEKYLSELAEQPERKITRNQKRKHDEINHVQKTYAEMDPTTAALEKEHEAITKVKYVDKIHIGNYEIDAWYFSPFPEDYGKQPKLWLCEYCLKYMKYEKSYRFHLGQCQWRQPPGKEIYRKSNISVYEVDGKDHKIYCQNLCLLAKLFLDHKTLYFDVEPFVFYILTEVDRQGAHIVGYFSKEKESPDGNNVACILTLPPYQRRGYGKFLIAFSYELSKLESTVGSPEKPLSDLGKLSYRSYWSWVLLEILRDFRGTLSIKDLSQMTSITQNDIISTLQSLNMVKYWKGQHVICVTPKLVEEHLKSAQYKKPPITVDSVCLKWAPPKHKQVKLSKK

MYST3 = MYST3 (Homo sapiens, UniProt Q92794); test: Histone acetyltransferase (HAT) activity assay; type: biochemical;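 note: selectivity screen of bromodomain probe compounds across a panel of histone acetyltransferases, read out as enzyme activity in %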
Sequence of MYST3 (Q92794 whole entry, species assumed): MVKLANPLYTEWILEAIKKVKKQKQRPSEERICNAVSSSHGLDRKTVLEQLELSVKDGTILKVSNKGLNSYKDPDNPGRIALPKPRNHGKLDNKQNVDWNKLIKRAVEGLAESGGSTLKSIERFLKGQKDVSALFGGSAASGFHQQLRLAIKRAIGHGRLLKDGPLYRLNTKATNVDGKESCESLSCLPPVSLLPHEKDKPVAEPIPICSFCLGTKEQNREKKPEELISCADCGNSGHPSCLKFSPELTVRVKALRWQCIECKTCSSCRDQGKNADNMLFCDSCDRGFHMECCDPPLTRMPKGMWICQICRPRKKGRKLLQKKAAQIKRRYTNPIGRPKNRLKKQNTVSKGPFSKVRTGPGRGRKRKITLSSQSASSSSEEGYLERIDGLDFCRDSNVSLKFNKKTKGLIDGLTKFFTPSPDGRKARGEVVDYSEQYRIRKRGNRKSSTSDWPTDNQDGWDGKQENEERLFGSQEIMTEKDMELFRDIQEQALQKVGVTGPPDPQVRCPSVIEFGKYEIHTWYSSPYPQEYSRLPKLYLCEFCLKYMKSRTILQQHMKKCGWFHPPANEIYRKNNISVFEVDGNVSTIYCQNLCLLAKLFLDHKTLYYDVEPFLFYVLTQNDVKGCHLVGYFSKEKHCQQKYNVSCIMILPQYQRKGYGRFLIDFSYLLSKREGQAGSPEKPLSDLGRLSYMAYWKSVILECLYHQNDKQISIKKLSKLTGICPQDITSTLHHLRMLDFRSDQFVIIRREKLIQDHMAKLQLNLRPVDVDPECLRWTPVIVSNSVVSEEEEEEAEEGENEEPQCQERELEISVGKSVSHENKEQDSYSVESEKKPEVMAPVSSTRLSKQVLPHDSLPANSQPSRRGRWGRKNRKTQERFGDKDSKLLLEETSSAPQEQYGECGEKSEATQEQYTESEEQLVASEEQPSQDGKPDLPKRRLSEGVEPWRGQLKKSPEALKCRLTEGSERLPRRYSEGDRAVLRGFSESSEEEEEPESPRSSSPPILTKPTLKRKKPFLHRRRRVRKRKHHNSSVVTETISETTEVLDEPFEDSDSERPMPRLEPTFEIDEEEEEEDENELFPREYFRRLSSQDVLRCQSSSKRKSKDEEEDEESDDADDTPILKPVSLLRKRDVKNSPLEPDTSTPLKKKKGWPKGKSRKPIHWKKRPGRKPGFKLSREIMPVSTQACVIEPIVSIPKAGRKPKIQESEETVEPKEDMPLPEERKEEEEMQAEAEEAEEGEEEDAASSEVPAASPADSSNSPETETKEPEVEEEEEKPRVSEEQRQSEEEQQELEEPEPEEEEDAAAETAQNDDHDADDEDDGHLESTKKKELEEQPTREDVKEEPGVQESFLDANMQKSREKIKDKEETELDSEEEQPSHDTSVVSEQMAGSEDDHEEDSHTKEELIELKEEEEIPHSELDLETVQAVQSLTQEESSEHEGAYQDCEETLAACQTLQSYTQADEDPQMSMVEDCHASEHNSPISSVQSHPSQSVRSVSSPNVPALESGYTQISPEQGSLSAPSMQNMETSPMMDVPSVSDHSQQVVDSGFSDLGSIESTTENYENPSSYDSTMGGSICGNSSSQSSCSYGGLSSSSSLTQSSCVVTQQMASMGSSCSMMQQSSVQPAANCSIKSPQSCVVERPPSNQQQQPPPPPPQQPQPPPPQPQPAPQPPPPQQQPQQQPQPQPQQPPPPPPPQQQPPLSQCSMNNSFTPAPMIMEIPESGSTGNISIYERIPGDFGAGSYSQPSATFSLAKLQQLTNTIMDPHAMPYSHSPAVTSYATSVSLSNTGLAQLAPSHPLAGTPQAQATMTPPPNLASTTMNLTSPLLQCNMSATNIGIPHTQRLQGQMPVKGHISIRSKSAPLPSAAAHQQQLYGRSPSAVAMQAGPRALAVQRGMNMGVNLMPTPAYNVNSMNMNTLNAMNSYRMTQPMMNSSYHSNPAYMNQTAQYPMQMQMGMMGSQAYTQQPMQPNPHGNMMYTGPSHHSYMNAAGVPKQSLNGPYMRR

[3] = KD (BROMOscan), sheet prints no unit (nM)

Kd (BRD1): 60 µM
Kd (CECR2; KD, BROMOscan Gene Symbol CECR2): 9 µM
Kd (BRD3(2); KD, BROMOscan Gene Symbol BRD3(2)): 13 µM
Kd (BRD4(fl)): 41 µM
Kd (BRPF1; KD, BROMOscan Gene Symbol BRPF1): 14 µM
Kd (BRDT(1,2); KD, BROMOscan Gene Symbol BRDT(1,2)): 52 µM
Kd (EP300 [1]; KD, BROMOscan Gene Symbol EP300): 70 µM
Kd (BRDT(1); KD, BROMOscan Gene Symbol BRDT(1)): 30 µM
Kd (WDR9(2); [3]): > 30000 nM
Kd (WDR9(2); KD, BROMOscan Gene Symbol WDR9(2)): > 100000 nM
Kd (PBRM1(5); [3]): > 30000 nM
Kd (PBRM1(5); KD, BROMOscan Gene Symbol PBRM1(5)): > 100000 nM
Kd (BRD2(1)): 41 µM
Kd (BRD3(1); KD, BROMOscan Gene Symbol BRD3(1)): 34 µM
Kd (BRD8(2); [3]): > 30000 nM
Kd (BRD8(2); KD, BROMOscan Gene Symbol BRD8(2)): > 100000 nM
Kd (FALZ; KD, BROMOscan Gene Symbol FALZ): 95 µM
SMILES: CCCOc1ccn2c(C(C)=O)cc(-c3ccccc3S(C)(=O)=O)c2c1 [GSK2801]

Kd (BRD1; BRD1): 22 µM
HATs Activity (%) (HAT1; 1µM): 104%
HATs Activity (%) (HAT1; 10µM): 95%
HATs Activity (%) (EP300 [2]; 1µM): 99%
HATs Activity (%) (EP300 [2]; 10µM): 98%
Kd (CECR2; BROMOscan, CECR2): > 50 µM
HATs Activity (%) (GCN5L2; 1µM): 92%
HATs Activity (%) (GCN5L2; 10µM): 89%
Kd (BRD3(2); BROMOscan, BRD3(2)): > 50 µM
Kd (BAZ2B; BAZ2B): > 50 µM
Kd (BRD4(fl); BROMOscan, BRD4(full-length,short-iso.)): > 50 µM
HATs Activity (%) (MYST1; 1µM): 90%
HATs Activity (%) (MYST1; 10µM): 88%
Kd (BRPF1; BROMOscan, BRPF1): 43 µM
Kd (BRDT(1,2); BROMOscan, BRDT(1,2)): 21 µM
Kd (EP300 [1]; BROMOscan, EP300): > 50 µM
Kd (BRDT(1); BROMOscan, BRDT(1)): > 50 µM
Kd (WDR9(2); BROMOscan, WDR9(2)): > 50000 nM
Kd (PBRM1(5); BROMOscan, PBRM1(5)): > 50000 nM
Kd (BRD2(1); BRD2(1)): > 50 µM
Kd (BRD3(1); BROMOscan, BRD3(1)): 44 µM
Kd (BRD8(2); BROMOscan, BRD8(2)): > 50000 nM
HATs Activity (%) (MYST3; 1µM): 96%
HATs Activity (%) (MYST3; 10µM): 100%
Kd (FALZ; BROMOscan, FALZ): > 50 µM
SMILES: Cc1cc(=O)n(C)c2cc(N3C(=O)CC[C@H](NS(=O)(=O)CC(C)C)[C@H]3c3ccc(Cl)cc3)ccc12 [LP-99]

Kd (BRD1; BRD1): 0.046 µM
Kd (CECR2; CECR2): 12 µM
Kd (BRD3(2); BRD3(2)): > 50 µM
Kd (BAZ2B; BAZ2B): 9.4 µM
Kd (BRD4(fl); BRD4(full-length,short-iso.)): 4.9 µM
Kd (BRPF1; BRPF1): 0.004 µM
Kd (BRDT(1,2); BRDT(1,2)): > 50 µM
Kd (EP300 [1]; EP300): 15 µM
Kd (BRDT(1); BRDT(1)): 4.8 µM
Kd (WDR9(2); WDR9(2)): > 50000 nM
Kd (PBRM1(5); PBRM1(5)): 11000 nM
Kd (BRD2(1); BRD2(1)): 5.9 µM
Kd (BRD3(1); BRD3(1)): 7.2 µM
Kd (BRD8(2); BRD8(2)): > 50000 nM
Kd (FALZ; FALZ): 2.3 µM
SMILES: COc1cc(C#N)ccc1S(=O)(=O)Nc1ccc2c(c1)cc(C)c(=O)n2C [NI 57]

SMILES: CCCS(=O)(=O)c1nc(NC2CC2)cc(-c2ccc3c(ccn3C3CC(C)(C)NC(C)(C)C3)c2)n1 [NVS-CECR2-1]
Kd (BRD1): > 30 µM
activity at 1 µM (HAT1; read-out: HATs Activity (%)): 99%
activity at 10 µM (HAT1; read-out: HATs Activity (%)): 88%
activity at 1 µM (EP300 [2]; read-out: HATs Activity (%)): 90%
activity at 10 µM (EP300 [2]; read-out: HATs Activity (%)): 84%
Kd (CECR2): 0.014 µM
activity at 1 µM (GCN5L2; read-out: HATs Activity (%)): 100%
activity at 10 µM (GCN5L2; read-out: HATs Activity (%)): 100%
Kd (BRD3(2)): > 30 µM
Kd (BAZ2B): > 30 µM
Kd (BRD4(fl)): 13 µM
activity at 1 µM (MYST1; read-out: HATs Activity (%)): 96%
activity at 10 µM (MYST1; read-out: HATs Activity (%)): 94%
Kd (BRPF1): 3.5 µM
Kd (BRDT(1,2)): 14 µM
Kd (EP300 [1]): > 30 µM
Kd (BRDT(1)): > 30 µM
Kd (WDR9(2)): 30000 nM
Kd (PBRM1(5)): > 30000 nM
Kd (BRD2(1)): > 30 µM
Kd (BRD3(1)): > 30 µM
Kd (BRD8(2)): > 30000 nM
activity at 1 µM (MYST3; read-out: HATs Activity (%)): 98%
activity at 10 µM (MYST3; read-out: HATs Activity (%)): 103%
Kd (FALZ): 0.36 µM
